Data set [1] relates to mouse hepatocytes. The data set can be described thus: Hepatocyte intrinsic clearance and metabolite profile. It counts as in vitro ADME. The conditions noted are these: fexinidazole 10 µM. As to the method:
Fexinidazole was incubated with cryopreserved hepatocytes from male CD-1 mice, male Sprague Dawley rats, male beagle dogs, male cynomolgus monkeys, and from pooled white or African-American human donor samples (purchased commercially), at concentrations of 1 µM and 10 µM. […] The incubated samples were analyzed by LC-MS after extraction into acetonitrile.
A quality control analysis of fexinidazole was performed via 1H-NMR in DMSO and LC- […]
provided by the Swiss Tropical Institute (Basel, Switzerland).
Reagents and solvents were of analytical grade and obtained from Sigma-Aldrich (St. Louis, […]
Cryopreserved hepatocytes from the male CD1 mouse, lot CSI; male Sprague Dawley rat, lot LPL; male beagle dog, lot BWX; male cynomolgus monkey, lot EHH; and pooled human samples, lot MJI, were purchased from In Vitro Technologies Inc (Baltimore, Maryland, […]
5.4. In vitro Incubations
On the day of the experiment a 10 mM stock solution of fexinidazole in DMSO was prepared and, within 3 hours, aliquots of this freshly prepared solution, after suitable dilution, were added to the incubation matrix, to reach fexinidazole final concentrations of 1 and 10 µM. The final percentage of DMSO was 0.01% in the incubation samples for the […]
On the day of experiment, the cryopreserved hepatocytes were thawed following the detailed instructions provided by the supplier.
The number of viable cells was determined using a Trypan Blue exclusion method.
5.4.1. Intrinsic Clearance Study […]
µM with mouse, rat, dog, monkey and human hepatocytes (300000 cells/mL for the mouse and 1 million cells/mL for the other species) in a final incubation volume of 0.75 mL […]
Incubations were performed in duplicate in a 48-well plate under shaking. Sampling was performed using an automatic liquid handling system (Multiprobe II EX, Packard). At 0, 1, 5, 10, 15, 20, 30, 60 and 120 minutes, 50 µL aliquots of the incubates were taken, then 80 µL of ice-cold acetonitrile and 20 µL of 1 µM warfarin in acetonitrile (internal standard) were added, and samples centrifuged at 2000 rpm for 20 min. The supernatant was analyzed by LC-MS/MS. […]
the medium alone at t = 0 and 120 minutes.
For the determination of phase I and phase II activity of hepatocytes, 7-ethoxycoumarin (7-EC) 1 µM, and 7-hydroxycoumarin (7-HC) 30 µM were used as positive controls and incubated under the same conditions as fexinidazole. Aliquots of incubates were taken at 0, 10, 20, 30, 60 and 120 minutes and processed as fexinidazole samples.
5.4.2. Metabolite Profile Study
For metabolite profiling, fexinidazole was incubated at a concentration of 10 µM with mouse, rat, dog, monkey and human hepatocytes (300000 cells/mL for the mouse and 1 million cells/mL for the other species) in a final incubation volume of 2 mL Leibovitz L-15 […]
Aliquots of the incubation samples were taken at t = 0, 30 and 120 minutes; the metabolism was stopped by the addition of an equal volume of cold acetonitrile and the samples centrifuged at 1500 rpm for 20 min. The supernatant was stored at -20°C until analysis. Control incubations were performed with the compound in the medium alone […]
5.5. Analysis of Samples for Intrinsic Clearance Determination
The analysis of the samples for intrinsic clearance determination was performed by an LC-MS/MS method, using the following conditions:
HPLC Equipment and Conditions
HPLC system Agilent 1100 binary pump (Agilent, Palo Alto, USA)
Autosampler CTC Pal (Alfatech, San Jose, USA)
Analytical column Guard Column SB-C8 4.6 x 12.5 mm, 5 µm (Zorbax)
Column temperature ambient
Mobile phase A 10 mM ammonium formate pH 4.0: acetonitrile (95:5, v:v)
Mobile phase B 10 mM ammonium formate pH 4.0: acetonitrile (5:95, v:v) […]
Gradient conditions Step Total time (min) flow (µL/min) %A % B […]
MS Equipment and Conditions
Mass spectrometer API 4000 Triple Quadrupole (MDS-Sciex, Toronto, […]
Source Turbo Ion Spray (TIS)
Ion mode Positive for fexinidazole and 7-EC.
Negative for 7-HC, 7-HC sulphate and 7-HC glucuronide.

Data set [2] in a line: Dog single-dose IV and oral pharmacokinetics. It counts as in vivo. The conditions noted are these: for AUC(0-t): read-out: AUC0-t(last); for half-life: read-out: t1/2,z (converted). On the procedure:
Pharmacokinetic Report for the study No. 0320-2007
Fexinidazole was given as IV and oral administrations to male Beagle dogs according to the […]
Dog ID Route Dose Formulation
IV dose was administered via the radial vein, the oral dose was administered by gastric […]
gavage. A washout period of […] was allowed between the IV (Day 1) and oral (Day 12) […]
4.2. Sample Collection and Handling
Blood was withdrawn from jugular vein and collected in heparinized plastic tubes kept on an […]
ice/water bath, then centrifuged at 1200g for 10 minutes at 4°C. Three aliquots of the […]
separated plasma (about 0.2 mL) was stored at -80°C until analysis for Fexinidazole and its […]
sulphone and sulphoxide metabolites. Blood was taken at pre-dose and 0.083 (5 minutes), […]
4.3. Bioanalytical Method
Plasma concentrations of Fexinidazole and its sulphone and sulphoxide metabolites were […]
determined by LC-MS-MS method following plasma protein precipitation. The lower limit […]
of quantification of the bioanalytical method was 5 ng/mL for all analytes. Bioanalytical data […]
Details of the bioanalytical method used are reported in Appendix 2 and analytical […]
performances of calibration standards are reported in Appendix 3.
4.4. Pharmacokinetic Calculations
Pharmacokinetic evaluations of Fexinidazole and sulphone and sulphoxide metabolites were […]
For the calculations, the pre-dose concentrations of Fexinidazole were set equal to C0.083 […]
after IV administration, whilst the pre-dose concentrations of Fexinidazole after oral […]
administration and the pre-dose concentrations of the metabolites after both doses were set […]
Nerviano Medical Sciences
After IV and oral dosing, Cmax (C0.083 for Fexinidazole after IV dosing) and tmax of each […]
concentration. After both doses, for each compound, the area under plasma concentration vs. […]
last detectable concentration. The half-life of the terminal phase, t1/2,z, was determined by […]
linear regression analysis of the natural-log concentration vs. time curve, where t1/2,z = […]
ln(2)/slope of the regression line. […]
infinite time, AUC0-∞, was determined as
AUC0- ∞ = AUC0 − t(last) + Ct(last)⋅ […]
The fraction of AUC0-∞ accounted for by the extrapolated area under the curve was […]
%EXTt (last)− 0∞=100⋅AUCt(last)−∞
After IV dosing, plasma clearance and volume of distribution at steady state of Fexinidazole […]
were calculated as follows:
Vss = CL⋅MRT, where MRT is the mean residence time.
Absolute bioavailability of Fexinidazole was calculated from the ratio of individual oral to […]
IV dose-normalized AUC0-t(last) and AUC0-∞ values.
After both doses, Cmax and AUC values of each compound were also normalized to a 1 […]
pharmacokinetic parameters sorted by compound and route of dosing.
Plasma concentrations and pharmacokinetic parameters of each compound were reported to […]
three significant figures.
5.1.1. Clinical and Physical Examinations
Individual clinical signs are reported in Appendix 4. […]
treatments with Fexinidazole. No meaningful clinical signs were recorded during wash out

The nature of data set [3]: Lipophilicity (logD). Type of data set: physicochemical. The conditions noted are these: pH 7.4.
The mark [4] stands for this setting: dog, plasma, fexinidazole 1 mg/kg IV, male Beagle dogs, read-out: Cmax (C0.083 for parent).
[5] abbreviates: male, Beagle, dog, plasma, fexinidazole 1 mg/kg IV.
The mark [6] stands for this setting: male, Beagle, dog, plasma, fexinidazole 10 mg/kg oral.
[7] abbreviates: male, Beagle, dog, plasma, fexinidazole 10 mg/kg oral, read-out: Cmax.
Setting [8] is: dog, oral 10 mg/kg vs IV 1 mg/kg.

Several values for one entry are separate records, joined by “and”; a condition that tells them apart may be missing. Equal entries are not always repeated. Where two headings read alike, the source gives them in different places.

Usually Cmax stands for the maximum level reached in the sampled fluid or tissue. A word on the Tmax: it is the time at which the peak concentration occurs. Broadly, the logD is lipophilicity at a set pH, counting ionised and neutral species. Low values mean lower lipophilicity, high ones higher lipophilicity. Turning to `Cn1c([N+](=O)[O-])cnc1COc1ccc(S(C)(=O)=O)cc1` [Fexinidazole sulfone], the “% of total drug related material” value in data set [1] (30 min) is recorded as 8%; in data set [1] (120 min), 20%. Further, the peak concentration (Cmax) was determined as 681 ± 162 ng/mL in data set [2] (setting [4]) and 3260 ± 762 ng/mL in data set [2] (setting [7]). The time of peak concentration (Tmax) turned out to be 4.67 h in data set [2] (setting [5]) and 6.67 h in data set [2] (setting [6]). The AUC(0-t) in data set [2] (setting [5]) is 5270 ± 1230 ng·h/mL; in data set [2] (setting [6]) it was 44700 ± 3810 ng·h/mL. The pH-dependent lipophilicity (logD) in data set [3] amounted to 0.74.
A word on the AUC(0-inf): it is total exposure, with the tail of the curve extrapolated. Read a high AUC(0-inf) as more exposure. In the case of `Cn1c([N+](=O)[O-])cnc1COc1ccc([S+](C)[O-])cc1` (stereo not drawn) [Fexinidazole sulfoxide], the “% of total drug related material” value amounted to 92% in data set [1] (30 min), 80% in data set [1] (120 min) and 58% in data set [1] (t=0). Further, the Cmax was determined as 763 ± 45.3 ng/mL in data set [2] (setting [4]) and 1900 ± 186 ng/mL in data set [2] (setting [7]). Besides, the AUC(0-inf) in data set [2] (setting [5]) was found to be 1520 ± 208 ng·h/mL; in data set [2] (setting [6]), 8780 ± 895 ng·h/mL. The time of peak concentration (Tmax) in data set [2] (setting [5]) turned out to be 0.194 h; in data set [2] (setting [6]) it was 1.17 h. The results for the AUC(0-t) in data set [2] (setting [5]) and in data set [2] (setting [6]) were 1480 ± 197 ng·h/mL and 8560 ± 767 ng·h/mL, respectively. Also, the half-life in data set [2] (setting [5]) was 1.16 h; in data set [2] (setting [6]), 5.72 h. This compound showed a logD in data set [3] of 0.52.
Turning to `CSc1ccc(OCc2ncc([N+](=O)[O-])n2C)cc1` [Fexinidazole, 1-methyl-2-((p-(methylthio)phenoxy)methyl)-5-nitroimidazole], the “% of total drug related material” value in data set [1] (t=0) was 42%. The clinical signs entry in data set [2] (1 mg/kg IV and 10 mg/kg oral) is given as “No significant treatment related clinical signs”. Further, in data set [2] (setting [8]), the “F% AUC0-t(last)” value was 10% and 9.60 ±4.32%; the “F% AUC0-∞” value is recorded as 14.1%. For the same compound, in data set [2] (setting [4]), the peak concentration (Cmax) was found to be 320 ± 136 ng/mL. In data set [2] (male, Beagle, dog, plasma, 1 mg/kg IV), this compound displayed a clearance of 273 mL/min/kg. Further, the Vd in data set [2] (male, Beagle, dog, plasma, 1 mg/kg IV, read-out: Vss) was determined as 3.26 L/kg. For the same compound, in data set [2] (setting [5]), the total exposure AUC(0-inf) is 70.6 ± 33.8 ng·h/mL, the AUC(0-t) came out at 66.9 ± 31.8 ng·h/mL and the half-life is 0.406 h. Also, in data set [2] (setting [6]), the total exposure AUC(0-inf) is 85.3 ± 1.27 ng·h/mL, the Tmax stood at 0.667 h, the AUC(0-t) came to 57.2 ± 13.4 ng·h/mL and the half-life was 1.93 h. In addition, the highest concentration (Cmax) in data set [2] (setting [7]) was found to be 24.2 ± 5.86 ng/mL. For the same compound, the logD in data set [3] came out at 2.83.

Source of the values: paper PMC3006138, “Fexinidazole – A New Oral Nitroimidazole Drug Candidate Entering Clinical Development for the Treatment of Sleeping Sickness” (PLoS Neglected Tropical Diseases, 2010).
